# Data reported in ChEMBL document CHEMBL3400114, “The design, synthesis and biological evaluation of conformationally restricted 4-substituted-2,6-dimethylfuro[2,3-d]pyrimidines as multi-targeted receptor tyrosine kinase and microtubule inhibitors as potential antitumor agents” (Bioorg Med Chem, 2015).
# Columns and labels:
# [1] = test system: MDA-MB-435; assay: Antiproliferative activity against human MDA-MB-435 cells after 48 hrs by sulforhodamine B assay; format: functional, cell-based; details: MDA-MB-435, 48 h
# [2] = test system: HeLa; assay: Antiproliferative activity against human HeLa cells overexpressing wild type beta3 tubulin after 48 hrs by sulforhodamine B assay; format: functional, cell-based
# [3] = Antiproliferative activity against human SKOV3 cells overexpressing wild type beta3 tubulin after 48 hrs by sulforhodamine B assay; format: functional, cell-based; details: SK-OV-3, 48 h
# [4] = target: Epidermal growth factor receptor (Homo sapiens, UniProt P00533); format: cell-based, A-431
# [5] = target: Vascular endothelial growth factor receptor 2 (Homo sapiens, UniProt P35968); format: cell-based, U-251
# [6] = target: Platelet-derived growth factor receptor beta (Homo sapiens, UniProt P09619); assay: Inhibition of PDGFR-beta in human U251 cells compound pretreated for 60 min before PDGF-BB stimulation for 10 mins by phosphotyrosine ELISA cytoblot method; format: cell-based, U-251
# [7] = test system: A-431; assay: Antiproliferative activity against human A431 cells after 48 hrs by sulforhodamine B assay; format: functional, cell-based; details: A-431, 48 h
# [8] = Antiproliferative activity against human SKOV3-MDR1-M6/6 cells overexpressing wild type beta3 tubulin after 48 hrs by sulforhodamine B assay; format: functional, cell-based; details: SKOV3-MDR1-M6/6, 48 h
# [9] = Antiangiogenic activity in VEGF-165 and bFGF-stimulated chicken embryo chorioallantoic membrane assessed as inhibition of blood vessel formation after 40 hrs by microscopy; format: functional, tissue-based, Gallus gallus
# [10] = Induction of microtubule depolymerization in rat A10 cells after 18 hrs by indirect immunofluorescence assay; format: cell-based
# Chain of Epidermal growth factor receptor (P00533 whole entry): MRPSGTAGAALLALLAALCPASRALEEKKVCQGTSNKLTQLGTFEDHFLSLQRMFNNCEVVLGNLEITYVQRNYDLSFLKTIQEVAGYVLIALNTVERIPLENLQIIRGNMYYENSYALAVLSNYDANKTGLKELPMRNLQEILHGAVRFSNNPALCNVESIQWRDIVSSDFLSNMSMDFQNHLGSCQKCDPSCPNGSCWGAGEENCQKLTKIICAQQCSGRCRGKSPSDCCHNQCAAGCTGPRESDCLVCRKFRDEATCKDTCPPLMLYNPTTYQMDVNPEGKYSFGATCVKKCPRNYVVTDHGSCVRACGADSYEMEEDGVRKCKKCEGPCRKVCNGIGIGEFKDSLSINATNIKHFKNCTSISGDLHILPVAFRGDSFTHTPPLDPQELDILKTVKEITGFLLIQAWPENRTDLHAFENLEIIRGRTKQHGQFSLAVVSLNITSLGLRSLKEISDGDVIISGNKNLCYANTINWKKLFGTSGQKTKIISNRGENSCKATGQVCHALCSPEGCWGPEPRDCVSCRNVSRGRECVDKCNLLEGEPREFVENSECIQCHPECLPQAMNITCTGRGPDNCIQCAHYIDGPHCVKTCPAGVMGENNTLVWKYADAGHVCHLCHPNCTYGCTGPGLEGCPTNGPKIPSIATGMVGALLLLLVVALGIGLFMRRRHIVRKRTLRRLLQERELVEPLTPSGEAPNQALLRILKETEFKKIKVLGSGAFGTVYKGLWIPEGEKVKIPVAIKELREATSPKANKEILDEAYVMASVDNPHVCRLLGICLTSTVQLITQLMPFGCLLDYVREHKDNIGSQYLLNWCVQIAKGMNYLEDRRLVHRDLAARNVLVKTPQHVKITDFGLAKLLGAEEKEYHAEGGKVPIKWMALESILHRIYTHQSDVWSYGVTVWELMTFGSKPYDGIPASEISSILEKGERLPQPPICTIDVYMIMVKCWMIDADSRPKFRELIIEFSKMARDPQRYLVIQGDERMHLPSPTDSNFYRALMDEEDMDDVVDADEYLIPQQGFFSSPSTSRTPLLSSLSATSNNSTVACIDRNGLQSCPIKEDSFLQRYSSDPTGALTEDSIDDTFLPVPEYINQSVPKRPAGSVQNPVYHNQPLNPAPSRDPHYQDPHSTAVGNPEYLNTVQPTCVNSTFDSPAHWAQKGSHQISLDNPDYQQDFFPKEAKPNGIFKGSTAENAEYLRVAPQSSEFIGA
# Chain of Vascular endothelial growth factor receptor 2 (P35968 whole entry): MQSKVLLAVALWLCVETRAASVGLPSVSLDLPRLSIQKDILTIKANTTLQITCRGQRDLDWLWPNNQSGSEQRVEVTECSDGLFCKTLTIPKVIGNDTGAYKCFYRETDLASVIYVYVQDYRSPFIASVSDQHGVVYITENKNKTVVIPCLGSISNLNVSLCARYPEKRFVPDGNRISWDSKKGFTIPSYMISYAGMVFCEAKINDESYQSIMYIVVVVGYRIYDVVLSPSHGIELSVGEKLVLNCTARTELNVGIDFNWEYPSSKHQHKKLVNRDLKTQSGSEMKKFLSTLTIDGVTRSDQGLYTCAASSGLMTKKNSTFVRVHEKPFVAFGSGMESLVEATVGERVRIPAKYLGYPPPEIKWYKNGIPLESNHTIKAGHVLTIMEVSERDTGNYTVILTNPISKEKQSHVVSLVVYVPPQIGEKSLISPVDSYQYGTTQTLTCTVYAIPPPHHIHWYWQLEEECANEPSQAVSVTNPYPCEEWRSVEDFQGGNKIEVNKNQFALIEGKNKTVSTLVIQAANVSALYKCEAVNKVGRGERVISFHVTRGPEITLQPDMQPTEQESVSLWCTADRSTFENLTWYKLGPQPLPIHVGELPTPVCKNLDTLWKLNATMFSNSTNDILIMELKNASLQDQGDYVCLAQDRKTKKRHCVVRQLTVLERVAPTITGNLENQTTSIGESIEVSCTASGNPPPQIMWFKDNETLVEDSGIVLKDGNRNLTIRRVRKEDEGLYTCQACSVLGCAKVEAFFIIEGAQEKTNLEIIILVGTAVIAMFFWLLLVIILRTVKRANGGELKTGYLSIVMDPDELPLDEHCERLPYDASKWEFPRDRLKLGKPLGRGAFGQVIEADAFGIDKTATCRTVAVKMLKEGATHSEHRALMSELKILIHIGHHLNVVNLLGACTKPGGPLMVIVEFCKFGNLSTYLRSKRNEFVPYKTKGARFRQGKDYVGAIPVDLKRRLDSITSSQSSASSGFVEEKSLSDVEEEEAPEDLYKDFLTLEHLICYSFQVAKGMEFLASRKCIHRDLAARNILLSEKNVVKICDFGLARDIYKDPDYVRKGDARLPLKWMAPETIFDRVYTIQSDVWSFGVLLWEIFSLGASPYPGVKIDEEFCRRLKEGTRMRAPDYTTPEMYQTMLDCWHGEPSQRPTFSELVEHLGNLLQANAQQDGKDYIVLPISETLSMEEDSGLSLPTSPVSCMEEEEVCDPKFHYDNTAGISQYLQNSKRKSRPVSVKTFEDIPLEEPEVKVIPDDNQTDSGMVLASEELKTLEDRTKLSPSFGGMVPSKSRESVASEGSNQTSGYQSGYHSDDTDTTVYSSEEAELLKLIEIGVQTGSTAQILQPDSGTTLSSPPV
# Chain of Platelet-derived growth factor receptor beta (P09619 whole entry): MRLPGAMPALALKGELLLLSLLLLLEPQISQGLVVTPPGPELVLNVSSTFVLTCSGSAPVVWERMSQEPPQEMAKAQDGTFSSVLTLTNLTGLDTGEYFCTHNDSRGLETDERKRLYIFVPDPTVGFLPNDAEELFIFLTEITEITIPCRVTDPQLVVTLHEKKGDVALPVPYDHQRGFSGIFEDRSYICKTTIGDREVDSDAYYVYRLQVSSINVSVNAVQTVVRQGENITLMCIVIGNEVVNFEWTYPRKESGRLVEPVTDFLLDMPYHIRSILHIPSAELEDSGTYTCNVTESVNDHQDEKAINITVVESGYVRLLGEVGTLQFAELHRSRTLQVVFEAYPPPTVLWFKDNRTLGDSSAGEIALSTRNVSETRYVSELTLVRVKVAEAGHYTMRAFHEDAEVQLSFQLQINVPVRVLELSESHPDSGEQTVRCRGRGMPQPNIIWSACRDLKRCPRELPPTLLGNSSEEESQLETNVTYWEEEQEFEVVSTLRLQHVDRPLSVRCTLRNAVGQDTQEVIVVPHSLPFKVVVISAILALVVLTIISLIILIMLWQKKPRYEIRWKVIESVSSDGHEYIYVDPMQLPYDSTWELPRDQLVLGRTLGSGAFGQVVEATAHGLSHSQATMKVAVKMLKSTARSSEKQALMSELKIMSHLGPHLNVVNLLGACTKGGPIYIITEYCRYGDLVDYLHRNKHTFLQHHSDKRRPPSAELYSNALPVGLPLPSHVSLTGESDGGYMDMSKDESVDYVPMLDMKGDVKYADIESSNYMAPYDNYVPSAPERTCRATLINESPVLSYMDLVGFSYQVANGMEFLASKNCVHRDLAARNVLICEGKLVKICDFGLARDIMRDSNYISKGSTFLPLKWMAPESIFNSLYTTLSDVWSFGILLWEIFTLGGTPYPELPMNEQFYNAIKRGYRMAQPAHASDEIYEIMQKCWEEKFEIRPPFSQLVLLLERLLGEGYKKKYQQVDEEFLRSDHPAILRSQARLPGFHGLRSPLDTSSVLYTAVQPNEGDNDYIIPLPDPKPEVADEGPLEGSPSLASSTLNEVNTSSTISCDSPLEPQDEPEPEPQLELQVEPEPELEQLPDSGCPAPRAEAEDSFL
Structure (SMILES),IC50 [1] [nM],IC50 [3] [nM],IC50 [7] [nM],IC50 [8] [nM],IC50 [9] [µM],EC50 [10] [µM],also measured
CC(=O)O[C@H]1C(=O)[C@@]2(C)[C@H]([C@H](OC(=O)c3ccccc3)[C@]3(O)C[C@H](OC(=O)[C@H](O)[C@@H](NC(=O)c4ccccc4)c4ccccc4)C(C)=C1C3(C)C)[C@]1(OC(C)=O)CO[C@@H]1C[C@@H]2O [PACLITAXEL],3.3,6.3,,,,,IC50 [2]: 32.9 nM
CCOc1ccc(N(C)c2nc(C)nc3oc(C)cc23)cc1,,,92.9,30.8,,,IC50 [4]: > 500 nM; IC50 [5]: 121 nM; IC50 [6]: 132 nM
COc1cc(N(C)c2nc(C)nc3oc(C)cc23)cc(OC)c1OC,,,> 300,,> 300,> 10,
COc1ccc2c(ccn2-c2nc(C)nc3oc(C)cc23)c1,,,> 300,,> 300,> 10,
COc1ccc2c(c1)CCN2c1nc(C)nc2oc(C)cc12,,,42.2,,,> 10,
COc1ccc(/C=C\c2cc(OC)c(OC)c(OC)c2)cc1O [COMBRETASTATIN A4],5,6.9,,3,,0.0098,
